From ChEMBL document CHEMBL1126148, “Synthesis of halogenated trimetoquinol derivatives and evaluation of their beta-agonist and thromboxane A2 (TXA2) antagonist activities” (J Med Chem, 1992) come the findings set out here.

Test [1] has as its target T1, Thromboxane A2 receptor (Rattus norvegicus) (UniProt P34978).
T1 sequence (whole entry): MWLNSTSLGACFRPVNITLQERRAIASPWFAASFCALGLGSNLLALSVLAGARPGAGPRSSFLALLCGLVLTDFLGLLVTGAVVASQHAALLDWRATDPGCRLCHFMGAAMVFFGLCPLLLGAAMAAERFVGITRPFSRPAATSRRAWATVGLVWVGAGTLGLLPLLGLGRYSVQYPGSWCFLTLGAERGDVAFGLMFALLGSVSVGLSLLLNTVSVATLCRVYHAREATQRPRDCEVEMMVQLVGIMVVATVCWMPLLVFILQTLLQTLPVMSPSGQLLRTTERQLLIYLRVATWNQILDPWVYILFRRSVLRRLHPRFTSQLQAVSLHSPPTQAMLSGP
The test can be described thus: (§1) Inhibitory activity against […]-mediated contraction of rat thoracic aorta (Thromboxane A2 tau receptor). In kind it is tissue-based.

The species named for another test is Homo sapiens. The experiment in a line: (§2) Potency ratio was measured as EC50 (trimetoquinol )/EC50 (drug). In kind it is functional.
A further test is filed under the species Rattus norvegicus. Described as §2. In kind it is functional.
For test [2], the target named is T2, Beta-2 adrenergic receptor (Cavia porcellus, UniProt Q8K4Z4). The experiment in a line: Agonist activity at Beta-2 adrenergic receptor in guinea pig trachea after treatment with the compound.
T2 sequence (Q8K4Z4 whole entry): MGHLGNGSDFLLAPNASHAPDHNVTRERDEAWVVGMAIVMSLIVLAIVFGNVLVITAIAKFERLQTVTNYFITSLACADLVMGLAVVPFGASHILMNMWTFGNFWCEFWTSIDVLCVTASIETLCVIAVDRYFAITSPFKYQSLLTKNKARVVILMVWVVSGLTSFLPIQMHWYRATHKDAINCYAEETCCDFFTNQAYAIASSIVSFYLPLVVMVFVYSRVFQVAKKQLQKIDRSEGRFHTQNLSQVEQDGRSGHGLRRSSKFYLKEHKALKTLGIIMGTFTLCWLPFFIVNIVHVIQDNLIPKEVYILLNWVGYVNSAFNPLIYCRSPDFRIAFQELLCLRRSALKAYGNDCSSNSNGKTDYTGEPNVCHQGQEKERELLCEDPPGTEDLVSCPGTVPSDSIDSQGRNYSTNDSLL
Test [3] deals with T3, Beta-1 adrenergic receptor (Cavia porcellus, UniProt B0FL73). The experiment in a line: (§3) Inhibitory activity against Beta-1 adrenergic receptor in guinea pig atria after treatment with the compound.
T3 sequence (B0FL73 whole entry): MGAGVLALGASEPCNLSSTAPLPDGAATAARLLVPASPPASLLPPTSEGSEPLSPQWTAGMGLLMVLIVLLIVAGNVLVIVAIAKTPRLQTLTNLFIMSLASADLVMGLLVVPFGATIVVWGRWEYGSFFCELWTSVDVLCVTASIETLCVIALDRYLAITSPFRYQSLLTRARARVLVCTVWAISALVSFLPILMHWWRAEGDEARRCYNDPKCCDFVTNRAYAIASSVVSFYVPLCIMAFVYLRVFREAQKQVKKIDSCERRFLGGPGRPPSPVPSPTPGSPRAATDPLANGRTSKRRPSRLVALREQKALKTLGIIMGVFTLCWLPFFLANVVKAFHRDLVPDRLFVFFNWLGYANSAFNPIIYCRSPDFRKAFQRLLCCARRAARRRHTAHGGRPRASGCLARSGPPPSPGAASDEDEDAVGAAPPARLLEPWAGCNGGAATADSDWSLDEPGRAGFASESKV
The target in test [4] is Beta-1 adrenergic receptor (Cavia porcellus) (UniProt B0FL73). The description is as §3.
Beta-1 adrenergic receptor (Cavia porcellus), sequence (B0FL73 1-467): as the sequence (B0FL73 whole entry) above
For test [5] the target is unchanged. The test can be described thus: Maximum response of drug relative to the response of 10e-5 isoproterenol after treatment with the compound. Type of test: functional.
Test [6] concerns the target T3, Beta-1 adrenergic receptor. The experiment in a line: Binding affinity against Beta-1 adrenergic receptor in guinea pig left ventricle.
Test [7] concerns the target T2, Beta-2 adrenergic receptor. The test can be described thus: Binding affinity against Beta-2 adrenergic receptor in guinea pig lung membranes. Type of test: cell membranes, Membrane.
In test [8] the target is T1, Thromboxane A2 receptor (Rattus norvegicus). Described as §1. In kind it is functional, tissue-based.

As a reminder, the pKB is the KB on a negative log10 scale, so that one unit is a factor of ten. For orientation: EC50 means the concentration that produces a half-maximal response. In test [1], `COc1cc(CC2NCCc3c(F)c(O)c(O)c(F)c32)cc(OC)c1OC` (configuration not stated) yielded a pKB of 3.98. For the same compound, the Potency ratio in the test listed under Homo sapiens was 0.00277; in the test filed under Rattus norvegicus, 0.00708. In addition, the EC50 was 240 nM in [2] and 501 nM in test [3].

Take `COc1cc(CC2NCCc3c2cc(O)c(O)c3C(F)(F)F)cc(OC)c1OC` (configuration not stated): the figures for the pKB in test [1] and in test [4] were 3.7 and 5.32, respectively. Besides, the Potency ratio in the test listed under Homo sapiens amounted to 0.000525; in the test filed under Rattus norvegicus it was 0.00372.

In test [1], `COc1cc(CC2NCCc3cc(O)c(O)c(I)c32)cc(OC)c1OC` (configuration not stated) showed a pKB of 4.84. The Potency ratio in the test listed under Homo sapiens is 0.09; in the test listed under Rattus norvegicus, 0.24. In addition, the results for the EC50 in [2] and in test [3] were 1170 nM and 2950 nM, respectively. In test [5], the Intrinsic activity was 0.81.

One may read the Ki as a dissociation constant, usually derived from enzyme kinetics or from competition with a known ligand. A higher Ki goes with weaker binding. `COc1cc(C[C@@H]2NCCc3cc(O)c(O)cc32)cc(OC)c1OC` [TRETOQUINOL]: the Ki in test [6] was 87.1 nM; in test [7], 49 nM. In addition, the EC50 was 26.3 nM in test [2] and 174 nM in test [3]. The pKB in test [8] came out at 5.46.

On to `COc1cc(CC2NCCc3c2cc(O)c(O)c3I)cc(OC)c1OC` (configuration not stated), for which the negative logarithm of the KB (pKB) in test [1] amounted to 4.31. Besides, the Potency ratio in the test filed under Homo sapiens was 0.002; in the test listed under Rattus norvegicus, 0.07. The EC50 in [2] was 2240 nM; in test [3], over 31600 nM. Moreover, the Intrinsic activity in test [5] turned out to be 0.39.

In test [8], `COc1cc(C[C@H]2NCCc3cc(O)c(O)c(F)c32)cc(OC)c1OC` registered a pKB of 5.63.
